One compound from patent publication US20020090402A1, “Pharmaceutical composition against type I allergy and the preparation thereof” (priority 2000, published 2002) can be followed below.

In the test the test system is passive skin sensitization for the rats. The test is described as follows: anti-allergic pharmacodynamics: passive skin sensitization of rats (anti-trichosanthes serum, Evans blue, 620 nm colorimetry). The test is classed as in vivo, Wistar male rats. The following applies: rat, 5 mg/Kg IV one minute before second sensitization. An excerpt:
Research of anti-allergic pharmacodynamics of the pharmaceutical composition of the present invention
Wistar male rats with body weight of 100˜120 g were used, which were provided by the Experimental Animal Center of the Chinese Academy of Medical Sciences.
1. Tablets of this pharmaceutical composition obtained from Example 1 of this invention. It was made into a suspension with 0.5%CMC-Na.
2. Positive contrast medicament: disodium chromoglycate (produced by Shanghai Pharmaceutical Factory No. 5). It is dissolved with normal saline when it is used.
After the rats were divided in groups at random, they were lavaged and dosed with the above-mentioned pharmaceutical composition of this invention according to 6 g/Kg and 3 g/Kg, once a day, continuously for 10 days. After hair on their backs of all groups of animals was removed, said animals were sensitized for the first time with hypodermic injection with anti-trichosanthes serum. At the same time, the dosing groups took the pharmaceutical composition according to 6 g/Kg, two hours before the second sensitization. The positive contrast groups were dosed with IV of disodium chromoglycate in accordance of 5 mg/Kg, one minute before the second sensitization was made. All groups of animals were given with IV of 1% EVANSLAN (including trichosanthes protein of 1 mg/ml) in accordance with 1 mg/Kg for the second sensitization. […]

For `O=C([O-])c1cc(=O)c2c(OCC(O)COc3cccc4oc(C(=O)[O-])cc(=O)c34)cccc2o1.[Na+].[Na+]` [Positive contrast, disodium chromoglycate], the Inhibition rate stood at 78.2%. Further, under “620 nm”, the “OD value (X ± SD)” value turned out to be 0.19 ± 0.11.
